Molecular target: T1, human V1a receptor (Homo sapiens, UniProt P37288)
T1 construct: host or cells: CHO cells
Assay: Inhibition of phosphatidylinositol turnover (V1a)
Assay type: cell-based
Description: Inhibition of phosphatidylinositol turnover (V1a). The physiological effects of vasopressin are mediated through specific G-protein coupled receptors. The vasopressin V1a receptor is coupled to the Gq/G11 family of G proteins and mediates phosphatidylinositol turnover. The agonist or antagonist character of the compounds of the invention may be determined by their ability to inhibit vasopressin-mediated turnover of phosphatidylinositol by the procedure described in the following paragraphs.
Cell culture and labeling of cells. Three days prior to the assay, near-confluent cultures of hV1a or hV1b cells were dissociated and seeded in 6-well tissue culture plates, about 100 wells being seeded from each 75 cm^2 flask (equivalent to 12:1 split ratio). Each well contained 1 mL of growth medium with 2 μCi of [^3H]myo-inositol (American Radiolabeled Chemicals, St. Louis, Mo., USA).
Incubations (V1a and V1b). All assays were in triplicate except for basal and 10 nM AVP (both n=6). AVP ((arginine vasopressin), Peninsula Labs, Belmont, Calif., USA (#8103)) was dissolved in 0.1N acetic acid. Test agents were dissolved in DMSO and diluted in DMSO to 200 times the final test concentration. […] The order of incubations was randomized. Incubations were initiated by removing the prelabeling medium, washing the monolayer once with 1 mL of 0.9% NaCl, and transferring the contents of the assay tubes to corresponding wells. The plates were incubated for 1 hour at 37° C. Incubations were terminated by removing the incubation medium and adding 500 μL of ice cold 5% (w/v) trichloroacetic acid and allowing the wells to stand for 15 min.
Measurement of [^3H]inositol phosphates (V1a and V1b). BioRad Poly-Prep Econo-Columns were packed with 0.3 mL of AG 1×−8 100-200 formate form resin. Resin was mixed 1:1 with water and 0.6 mL added to each column. Columns were then washed with 10 mL water. Scintillation vials (20 mL) were placed under each column. For each well, the contents were transferred to a minicolumn, after which the well was washed with 0.5 mL distilled water, which was also added to the minicolumn. The columns were then washed twice with 5 mL of 5 mM myo-inositol to elute free inositol. Aliquots (1 mL) were transferred to 20 mL scintillation vials and 10 mL of Beckman Ready Protein Plus added. After the myo-inositol wash was complete, empty scintillation vials were placed under the columns, and [^3H]inositol phosphates were eluted with three additions of 1 mL 0.5 M ammonium formate containing 0.1 N formic acid. Elution conditions were optimized to recover inositol mono-, bis-, and trisphosphates, without eluting the more metabolically inert tetrakis-, pentakis-, and hexakis-phosphates. To each sample was added 10 mL of a high salt capacity scintillation fluid such as Tru-Count High Salt Capacity or Packard Hionic-Fluor. Inositol lipids were measured by adding 1 mL of 2% sodium dodecyl sulfate (SDS) to each well, allowing the wells to stand for at least 30 min., and transferring the solution to 20 mL scintillation vials, to which 10 mL Beckman Ready Protein Plus scintillation fluid was then added. Samples were counted in a Beckman LS 3801 liquid scintillation counter for 10 min. Total inositol incorporation for each well was calculated as the sum of free inositol, inositol phosphates, and inositol lipids.
Data analysis (V1a and V1b): concentration-inhibition experiments. Concentration-response curves for AVP and concentration-inhibition curves for test agents versus 10 nM AVP were analyzed by nonlinear least-squares curve-fitting to a 4-parameter logistic function. Parameters for basal and maximal inositol phosphates, EC50 or IC50, and Hill coefficient were varied to achieve the best fit. The curve-fitting was weighted under the assumption that the standard deviation was proportional to dpm of radioactivity. Full concentration-response curves for AVP were run in each experiment. […]

T1 sequence (P37288 whole entry): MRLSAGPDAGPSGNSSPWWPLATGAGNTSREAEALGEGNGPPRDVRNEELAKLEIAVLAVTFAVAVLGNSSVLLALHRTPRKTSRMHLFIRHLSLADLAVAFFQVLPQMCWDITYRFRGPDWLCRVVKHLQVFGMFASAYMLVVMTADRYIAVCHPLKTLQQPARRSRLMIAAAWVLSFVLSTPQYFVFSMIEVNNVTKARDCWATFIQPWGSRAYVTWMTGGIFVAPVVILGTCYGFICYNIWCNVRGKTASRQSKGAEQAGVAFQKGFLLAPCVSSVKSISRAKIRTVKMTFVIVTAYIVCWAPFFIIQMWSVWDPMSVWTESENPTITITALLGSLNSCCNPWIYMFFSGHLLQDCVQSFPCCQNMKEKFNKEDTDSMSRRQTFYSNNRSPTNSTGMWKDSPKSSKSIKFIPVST

Question: What does the source list for `CN(Cc1cccc(C(F)(F)F)c1)C(=O)[C@@H](CC(=O)N1CCC(N2CCCCC2)CC1)N1C(=O)[C@@H](N2C(=O)OC[C@@H]2c2ccccc2)[C@H]1C=Cc1ccccc1` [Example 225, 2(R)-[[4-(Piperidinyl)piperidinyl]carbonylmethyl]-2-[3(S)-(4(S)-phenyloxazolidin-2-on-3-yl)-4(R)-(2-styryl)azetidin-2-on-1-yl]acetic acid N-methyl-N-(3-trifluoromethylbenzyl)amide]?
Answer: Ki (Cheng-Prusoff from IC50, hV1a cells, read-out: Ki, suppression of the action of AVP (inositol phosphates)): 0.05 nM; IC50 (versus 10 nM AVP, hV1a cells, read-out: IC50, suppression of the action of AVP (inositol phosphates)): 2.68 nM
